Experimental data published in US20210378244A1, “VIRUCIDAL COMPOSITIONS AND METHODS” (InExtreme Enterprises Pty Ltd, priority 2020, published 2021).

Test system: Gloeocapsa magma
Experiment: Biological testing: visual rating of Gloeocapsa magma growth on inoculated plywood panels dipped in test solutions
Assay type: cell-based
Conditions: for effect on biocidal activity when combined with DDAC and/or BAC (QAC): QAC or QAC mixture and additive at concentrations as in the tables, data not shown for urea and urea dihydrochloride
Description: Test Solutions and Tests: To prepare the various QAC solutions, the following materials where used: Stepan BTC 1010 (50% aqueous solution of didecyl dimethyl ammonium chloride) and Stepan BTC 12 Special (50% aqueous solution of alkyl dimethyl benzyl ammonium chloride). Urea Monohydrochloride was prepared by reacting solid urea with hydrochloric acid 20BE (32% aqueous solution) at a ratio of one Mol active HCl to one Mol urea. Both Urea and HCl 20 BE are readily commercially available.
Biological testing: Gloeocapsa magma was chosen as a bacterial species that served as a model system for corona virus in terms of surface adhesion and membrane characteristics. The bacteria were cultured in a petri dish and inoculated on plywood panels (10×10 cm). […] The panels were dipped in the testing solutions for 10 seconds and left to dry. 24 hours post immersion each panel was examined for presence of green (living bacteria). This was done visually and rated from 0 (no growth)) to 5 (full growth coverage).

| SMILES | effect on biocidal activity when combined with DDAC and/or BAC (QAC) | biocidal effect (0.9% of DDAC in combination with the urea or other nitrogenous base-hydrochloride in water) |
| --- | --- | --- |
| Cl.Cl.NC(N)=O [urea dihydrochloride] | no impact in biocidal activity | – |
| CCCCCCCCCC[N+](C)(C)CCCCCCCCCC.[Cl-] [DDAC, didecyl dimethyl ammonium chloride] | – | same biocidal effect as 3% DDAC alone in water |
| Cl.NC(N)=O [UMC, Urea Monohydrochloride] | synergistic effect | – |
| NC(N)=O [urea] | no impact in biocidal activity | – |
